{"source": "patent US20210069064A1", "about": "“A MANUFACTURING METHOD OF AN HERBAL MEDICINAL TABLET FORMULATION FOR TREATING OBESITY WHICH CAN BE […] ON SASANG CONS[…]” (NUBEBE CO., LTD., priority 2017, published 2021)", "origin": "cited, not measured here", "conditions": "taken for 20 weeks or more"}
{"smiles": "CN[C@@H](C)[C@H](O)c1ccccc1", "note": "[ephedrine]", "values": [{"measurement": "weight and body fat change compared to the control group", "result": "weight and body fat loss"}]}
